Results as given in PMC9481151, “Discovery of new symmetrical and asymmetrical nitrile-containing 1,4-dihydropyridine derivatives as dual kinases and P-glycoprotein inhibitors: synthesis, in vitro assays, and in silico studies” (Journal of Enzyme Inhibition and Medicinal Chemistry, 2022).

Columns and labels:
[1] = test system: OVCAR-3; assay: NCI single dose (10 µM) SRB screen; format: cell-based, human; details: ovarian cancer, 48 h
[2] = test system: Aspergillus flavus; assay: Agar well diffusion method
[3] = test system: TK-10; assay: NCI single dose (10 µM) SRB screen; format: cell-based, human; details: renal cancer, 48 h
[4] = test system: NCI-H322M; assay: NCI single dose (10 µM) SRB screen; format: cell-based; details: non-small cell lung cancer, 48 h
[5] = test system: NCI-H23; assay: NCI single dose (10 µM) SRB screen; format: cell-based, human; details: non-small cell lung cancer, 48 h
[6] = test system: KM12; assay: NCI single dose (10 µM) SRB screen; format: cell-based, human; details: colon cancer, 48 h
[7] = test system: SK-OV-3; assay: NCI single dose (10 µM) SRB screen; format: cell-based, human; details: ovarian cancer, 48 h
[8] = test system: CCRF-CEM; assay: NCI single dose (10 µM) SRB screen; format: cell-based, human; details: leukaemia, 48 h
[9] = test system: Staphylococcus aureus; assay: Agar well diffusion method
[10] = test system: SNB-19; assay: NCI single dose (10 µM) SRB screen; format: cell-based, human; details: CNS cancer, 48 h
[11] = test system: SN12C; assay: NCI single dose (10 µM) SRB screen; format: cell-based, human; details: renal cancer, 48 h
[12] = test system: UO-31; assay: NCI single dose (10 µM) SRB screen; format: cell-based, human; details: renal cancer, 48 h
[13] = test system: BT-549; assay: NCI single dose (10 µM) SRB screen; format: cell-based, human; details: breast cancer, 48 h
[14] = test system: Candida albicans; assay: Agar well diffusion method
[15] = test system: NCI-H226; assay: NCI single dose (10 µM) SRB screen; format: cell-based, human; details: non-small cell lung cancer, 48 h
[16] = test system: NCI-H522; assay: NCI single dose (10 µM) SRB screen; format: cell-based, human; details: non-small cell lung cancer, 48 h
[17] = test system: HCT-116; assay: NCI single dose (10 µM) SRB screen; format: cell-based, human; details: colon cancer, 48 h
[18] = test system: OVCAR-5; assay: NCI single dose (10 µM) SRB screen; format: cell-based, human; details: ovarian cancer, 48 h
[19] = test system: U251; assay: NCI single dose (10 µM) SRB screen; format: cell-based, human; details: CNS cancer, 48 h
[20] = test system: HCC-2998; assay: NCI single dose (10 µM) SRB screen; format: cell-based, human; details: colon cancer, 48 h
[21] = test system: ACHN; assay: NCI single dose (10 µM) SRB screen; format: cell-based, human; details: renal cancer, 48 h
[22] = test system: PC-3; assay: NCI single dose (10 µM) SRB screen; format: cell-based, human; details: prostate cancer, 48 h
[23] = test system: T-47D; assay: NCI single dose (10 µM) SRB screen; format: cell-based, human; details: breast cancer, 48 h
[24] = test system: COLO 205; assay: NCI single dose (10 µM) SRB screen; format: cell-based, human; details: colon cancer, 48 h
[25] = test system: CAKI-1; assay: NCI single dose (10 µM) SRB screen; format: cell-based, human; details: renal cancer, 48 h
[26] = test system: HS578T; assay: NCI single dose (10 µM) SRB screen; format: cell-based, human; details: breast cancer, 48 h
[27] = test system: SF-295; assay: NCI single dose (10 µM) SRB screen; format: cell-based, human; details: CNS cancer, 48 h
[28] = test system: UACC-257; assay: NCI single dose (10 µM) SRB screen; format: cell-based, human; details: melanoma, 48 h
[29] = test system: Pseudomonas aeruginosa; assay: Agar well diffusion method
[30] = test system: MCF7; assay: NCI single dose (10 µM) SRB screen; format: cell-based, human; details: breast cancer, 48 h
[31] = test system: UACC-62; assay: NCI single dose (10 µM) SRB screen; format: cell-based, human; details: melanoma, 48 h
[32] = test system: HOP-92; assay: NCI single dose (10 µM) SRB screen; format: cell-based, human; details: non-small cell lung cancer, 48 h
[33] = test system: OVCAR-4; assay: NCI single dose (10 µM) SRB screen; format: cell-based, human; details: ovarian cancer, 48 h
[34] = test system: SR; assay: NCI single dose (10 µM) SRB screen; format: cell-based, human; details: leukaemia, 48 h
[35] = test system: SK-MEL-28; assay: NCI single dose (10 µM) SRB screen; format: cell-based, human; details: melanoma, 48 h
[36] = test system: RPMI-8226; assay: NCI single dose (10 µM) SRB screen; format: cell-based, human; details: leukaemia, 48 h
[37] = test system: NCI-H460; assay: NCI single dose (10 µM) SRB screen; format: cell-based, human; details: non-small cell lung cancer, 48 h
[38] = test system: Escherichia coli; assay: Agar well diffusion method
[39] = test system: Bacillus subtilis; assay: Agar well diffusion method; details: relative to ciprofloxacin
[40] = test system: K-562; assay: NCI single dose (10 µM) SRB screen; format: cell-based, human; details: leukaemia, 48 h
[41] = test system: SNB-75; assay: NCI single dose (10 µM) SRB screen; format: cell-based, human; details: CNS cancer, 48 h
[42] = test system: 786-0; assay: NCI single dose (10 µM) SRB screen; format: cell-based, human; details: renal cancer, 48 h
[43] = test system: M14; assay: NCI single dose (10 µM) SRB screen; format: cell-based, human; details: melanoma, 48 h
[44] = test system: NCI 60 cancer cell lines; assay: NCI single dose (10 µM) SRB screen, mean over panel; format: cell-based, human; details: mean over 60 cell lines, 48 h
[45] = test system: MALME-3M; assay: NCI single dose (10 µM) SRB screen; format: cell-based, human; details: melanoma, 48 h
[46] = test system: IGROV1; assay: NCI single dose (10 µM) SRB screen; format: cell-based, human; details: ovarian cancer, 48 h
[47] = test system: MDA-MB-468; assay: NCI single dose (10 µM) SRB screen; format: cell-based, human; details: breast cancer, 48 h
[48] = test system: SK-MEL-2; assay: NCI single dose (10 µM) SRB screen; format: cell-based, human; details: melanoma, 48 h
[49] = test system: RXF 393; assay: NCI single dose (10 µM) SRB screen; format: cell-based, human; details: renal cancer, 48 h
[50] = test system: HL-60(TB); assay: NCI single dose (10 µM) SRB screen; format: cell-based, human; details: leukaemia, 48 h
[51] = test system: HCT-15; assay: NCI single dose (10 µM) SRB screen; format: cell-based, human; details: colon cancer, 48 h

COC(=O)C1=C(C)NC(C)=C(C(=O)OCC(C)C)C1c1cccc(C#N)c1 (racemic) [Compound 2b, (±)-3-Isobutyl 5-methyl 4-(3-cyanophenyl)-2,6-dimethyl-1,4-dihydropyridine-3,5-dicarboxylate]
GI% OVCAR-3 [1]: – (Only GI% ≥ 10 are shown) | zone of inhibition at 1000 µg/mL ([2]; Aspergillus flavus, 24 h, read-out: Diameter of inhibition zone, A. flavus): 11 mm | % activity index, A. flavus ([2]; relative to clotrimazole): 44% | GI% TK-10 [3]: – (Only GI% ≥ 10 are shown) | GI% NCI-H322M [4]: – (Only GI% ≥ 10 are shown) | GI% NCI-H23 [5]: – (Only GI% ≥ 10 are shown) | GI% KM12 [6]: – (Only GI% ≥ 10 are shown) | GI% SK-OV-3 [7]: – (Only GI% ≥ 10 are shown) | GI% CCRF-CEM [8]: – (Only GI% ≥ 10 are shown) | zone of inhibition at 1000 µg/mL ([9]; Staphylococcus aureus, 24 h, read-out: Diameter of inhibition zone, S. aureus): 9 mm | % activity index, S. aureus ([9]; relative to ciprofloxacin): 37.5% | GI% SNB-19 [10]: – (Only GI% ≥ 10 are shown) | GI% SN12C [11]: – (Only GI% ≥ 10 are shown) | GI% UO-31 [12]: 11% | GI% BT-549 [13]: – (Only GI% ≥ 10 are shown) | zone of inhibition at 1000 µg/mL ([14]; Candida albicans, 24 h, read-out: Diameter of inhibition zone, C. albicans): 7 mm | % activity index, C. albicans ([14]; relative to clotrimazole): 25.9% | GI% NCI-H226 [15]: 10% | GI% NCI-H522 [16]: 15% | GI% HCT-116 [17]: 18% | GI% OVCAR-5 [18]: – (Only GI% ≥ 10 are shown) | GI% U251 [19]: – (Only GI% ≥ 10 are shown) | GI% HCC-2998 [20]: – (Only GI% ≥ 10 are shown) | GI% ACHN [21]: – (Only GI% ≥ 10 are shown) | GI% PC-3 [22]: 22% | GI% T-47D [23]: 25% | GI% COLO 205 [24]: – (Only GI% ≥ 10 are shown) | GI% CAKI-1 [25]: 28% | GI% HS578T [26]: 14% | GI% SF-295 [27]: 18% | GI% UACC-257 [28]: – (Only GI% ≥ 10 are shown) | zone of inhibition at 1000 µg/mL ([29]; Pseudomonas aeruginosa, 24 h, read-out: Diameter of inhibition zone, P. aeruginosa): 13 mm | % activity index, P. aeruginosa ([29]; relative to ciprofloxacin): 56.5% | GI% MCF7 [30]: 15% | GI% UACC-62 [31]: 21% | GI% HOP-92 [32]: 17% | GI% OVCAR-4 [33]: – (Only GI% ≥ 10 are shown) | GI% SR [34]: 29% | GI% SK-MEL-28 [35]: – (Only GI% ≥ 10 are shown) | GI% RPMI-8226 [36]: – (Only GI% ≥ 10 are shown) | GI% NCI-H460 [37]: – (Only GI% ≥ 10 are shown) | zone of inhibition at 1000 µg/mL ([38]; Escherichia coli, 24 h, read-out: Diameter of inhibition zone, E. coli): 9 mm | % activity index, E. coli ([38]; relative to ciprofloxacin): 34.6% | % activity index, B. subtilis [39]: – (Values below 25 are of limited value and not shown as they refer either to inactive or non-diffusing compounds) | GI% K-562 [40]: 15% | GI% SNB-75 [41]: 22% | GI% 786-0 [42]: – (Only GI% ≥ 10 are shown) | GI% M14 [43]: – (Only GI% ≥ 10 are shown) | Mean GI% [44]: 5% | GI% MALME-3M [45]: – (Only GI% ≥ 10 are shown) | GI% IGROV1 [46]: 12% | GI% MDA-MB-468 [47]: – (Only GI% ≥ 10 are shown) | GI% SK-MEL-2 [48]: – (Only GI% ≥ 10 are shown) | GI% RXF 393 [49]: – (Only GI% ≥ 10 are shown) | GI% HL-60(TB) [50]: 18% | GI% HCT-15 [51]: – (Only GI% ≥ 10 are shown)
